# Test results from patent US20250050671A1, “THERMOSENSITIVE RECORDING LAYER FORMING LIQUID, THERMOSENSITIVE RECORDING MEDIUM AND PRODUCTION METHOD THEREOF, AND IMAGE RECORDING METHOD” (Ricoh Company, Ltd., priority 2021, published 2025).
# Assay: Measurement of solubility of electron-accepting compound to solvent (saturated solution, gravimetric)
# Type: physicochemical
# Conditions: for Electron-accepting compound Solubility to ethanol: Table 2, repeated per forming liquid, 20° C.; for Solubility, alcohol solvent ethanol / Solubility, ester solvent ethyl acetate / Solubility, alcohol solvent isopropyl alcohol / Solubility, alcohol solvent methanol / Solubility, ketone solvent methyl ethyl ketone / Solubility, aromatic solvent toluene: saturated solution at 20° C.±3° C.
# Description: <Measurement of Solubility of Electron-Accepting Compound to Solvent> […]
# (2) While stirring a stirrer or a stirring rod, an electron-accepting compound was added gradually until insoluble matter of the electron-accepting compound appears at the bottom of the beaker.
# (3) The resultant was left to stand for 1 hour or longer with a lid placed on top of the beaker.
# (4) If the insoluble matter was completely disappeared by stirring with the stirring rod, the processes (2) to (4) were repeated.
# (5) If the insoluble matter was remained after standing for 1 hour or longer, it was determined that preparation of a saturated solution was completed.
# A weight (A) of an aluminium cup was weighed with the minimum unit of 1 mg or less.
# The part of the transparent supernatant liquid of the saturated solution prepared in 1 was collected by a pipette, and the collected liquid was placed in the aluminium cup (about 0.8 g to about 1.3 g in weight) and a weight of the liquid was weighed with the minimum unit of 1 mg or less.
# The aluminium cup in which the liquid was collected was placed in a dryer (120° C.±10° C.). Alternatively, the aluminium cup in which the liquid was collected is placed on a hot plate (120° C.±10° C.) in an area where a local ventilation was installed.
# The solvent was evaporated from the liquid for 25 minutes or longer (a lid was placed to prevent inclusion of dusts when a hot plate was used).
# The aluminium cup was removed from the drier or hot plate, and was left to stand for 1 minute or longer indoor, followed by weighing the total amount (C) with a unit of 1 mg or less.
SMILES,Electron-accepting compound Solubility to ethanol [% by mass],"Solubility, alcohol solvent ethanol [% by mass]","Solubility, ester solvent ethyl acetate [% by mass]","Solubility, alcohol solvent isopropyl alcohol [% by mass]","Solubility, alcohol solvent methanol [% by mass]","Solubility, ketone solvent methyl ethyl ketone [% by mass]","Solubility, aromatic solvent toluene [% by mass]"
"Oc1ccc(C2(c3ccc(O)cc3)c3ccccc3-c3ccccc32)cc1 [Electron-Accepting Compound 1, 9,9-Bis(4-hydroxyphenyl)fluorene]",4.7,4.7,9.0,4.5,24.8,30.2,0.7
Cc1ccc(S(=O)(=O)Oc2cccc(NC(=O)Nc3ccccc3)c2)cc1 [Electron-Accepting Compound 3],0.6,0.6,1.6,0.8,0.6,8.1,0.1
"O=S(=O)(c1ccc(O)cc1)c1ccc(O)cc1 [Electron-Accepting Compound 6, 4,4′-sulfonylbisphenol, reference compound]",34.1,34.1,9.7,34.1,33.7,36.5,0.1

# More lines, now with the values ahead:
Electron-accepting compound Solubility to ethanol [% by mass],"Solubility, alcohol solvent ethanol [% by mass]","Solubility, ester solvent ethyl acetate [% by mass]","Solubility, alcohol solvent isopropyl alcohol [% by mass]","Solubility, alcohol solvent methanol [% by mass]","Solubility, ketone solvent methyl ethyl ketone [% by mass]","Solubility, aromatic solvent toluene [% by mass]",SMILES
0.4,0.4,2.1,0.4,0.8,12.7,0.1,"Cc1ccc(S(=O)(=O)NC(=O)Nc2cccc(OS(=O)(=O)c3ccc(C)cc3)c2)cc1 [Electron-Accepting Compound 4, N-p-toluenesulfonyl-N′-3-(p-toluenesulfonyloxyphenyl)urea]"
0.1,0.1,1.3,0.1,0.1,11.3,0.1,"Cc1ccc(S(=O)(=O)Oc2cccc(NC(=O)Nc3cccc(OS(=O)(=O)c4ccc(C)cc4)c3)c2)cc1 [Electron-Accepting Compound 5, N,N′-di-[3-(p-toluenesulfonyloxy)phenyl]urea]"
